Measured values: ChEMBL document CHEMBL1201862, “PubChem BioAssay data set” (2004)
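Five compound concentrations were applied to cells in 96-well plates for 48 hours; endpoints were derived by simple linear interpolation of the resulting dose-response curve. GI50 is the concentration that inhibits growth by half.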 Activity calls are given as the source filed them. No stated cut-off is given here; in the data, active = GI50 up to about 1.1 µM and inactive = higher.

Assays:
Assay in all cases: NCI tumour cell line growth inhibition, 48 h
SK-MEL-5 = test system: SK-MEL-5
SNB-19 = test system: SNB-19
HL-60 = test system: HL-60
Hs-578T = test system: Hs-578T
SNB-75 = test system: SNB-75
HOP-62 = test system: HOP-62
UO-31 = test system: UO-31
COLO 205 = test system: COLO 205
SF-268 = test system: SF-268
MCF7 = test system: MCF7
A498 = test system: A498
OVCAR-5 = test system: OVCAR-5
LOX IMVI = test system: LOX IMVI
MDA-N = test system: MDA-N
HCT-15 = test system: HCT-15
SK-OV-3 = test system: SK-OV-3
NCI-H226 = test system: NCI-H226
HCT-116 = test system: HCT-116
NCI/ADR-RES = test system: NCI/ADR-RES
PC-3 = test system: PC-3

Row | Compound | GI50 (SK-MEL-5) | GI50 (SNB-19) | GI50 (HL-60) | GI50 (Hs-578T) | GI50 (SNB-75) | GI50 (HOP-62) | GI50 (UO-31) | GI50 (COLO 205) | GI50 (SF-268) | GI50 (MCF7) | GI50 (A498) | GI50 (OVCAR-5) | GI50 (LOX IMVI) | GI50 (MDA-N) | GI50 (HCT-15) | GI50 (SK-OV-3) | GI50 (NCI-H226) | GI50 (HCT-116) | GI50 (NCI/ADR-RES) | GI50 (PC-3)
1 | C=CC(=O)N1C/C(=C\c2ccc(OC)cc2)C(=O)/C(=C/c2ccc(OC)cc2)C1 | 2.61 µM (inactive) | 7.18 µM (inactive) | 0.69 µM (active) | 3.34 µM (inactive) | 6.05 µM (inactive) | 2.55 µM (inactive) | 1.77 µM (inactive) | 2.99 µM (inactive) | 3.51 µM (inactive) | 0.628 µM (active) | 1.73 µM (inactive) | 4.9 µM (inactive) | 0.986 µM (active) | 1.62 µM (inactive) | 1.56 µM | 3.48 µM (inactive) | 2 µM (inactive) | 0.219 µM (active) | 3.12 µM (inactive) | 1.83 µM (inactive)
2 | O=C(O)CSCCc1ccccc1 | > 100 µM (inactive) | > 100 µM (inactive) | 0.156 µM (active) | > 100 µM (inactive) | > 100 µM (inactive) | > 100 µM (inactive) | > 100 µM (inactive) | > 100 µM (inactive) | > 100 µM (inactive) | > 100 µM (inactive) | > 100 µM (inactive) | > 100 µM (inactive) | > 100 µM (inactive) | > 100 µM (inactive) | > 100 µM | > 100 µM (inactive) | > 100 µM (inactive) | > 100 µM (inactive) | > 100 µM (inactive) | > 100 µM (inactive)
3 | O=C1C=C(OCCCl)C(=O)c2c(O)ccc(O)c21 | 0.173 µM (active) | 1.02 µM (active) | 1.11 µM (active) | 3.98 µM (inactive) | 0.405 µM (active) | 0.589 µM (active) | 1.42 µM (inactive) | 0.181 µM (active) | 0.931 µM (active) | 0.216 µM (active) | 1.28 µM (inactive) | 1.59 µM (inactive) | 0.202 µM (active) | 0.17 µM (active) | 0.209 µM | 1.71 µM (inactive) | 2.26 µM (inactive) | 0.409 µM (active) | 2.56 µM (inactive) | 1.82 µM (inactive)
4 | CCN1C(=O)C(C)S/C1=N\NC(=O)CSc1nc2ccccc2c(=O)n1CC (stereo not given) | > 100 µM (inactive) | > 100 µM (inactive) | > 100 µM (inactive) | > 100 µM (inactive) | > 100 µM (inactive) | > 100 µM (inactive) | 72.9 µM (inactive) | > 100 µM (inactive) | 90.6 µM (inactive) | > 100 µM (inactive) | > 100 µM (inactive) | > 100 µM (inactive) | > 100 µM (inactive) | > 100 µM (inactive) | > 100 µM | > 100 µM (inactive) | > 100 µM (inactive) | > 100 µM (inactive) | > 100 µM (inactive) | > 100 µM (inactive)
5 | O=C(c1ccsc1)c1cc2c(s1)C(=O)c1ccsc1C2=O | 0.0279 µM (active) | 0.177 µM (active) | 1.48 µM (inactive) | 0.209 µM (active) | 0.171 µM (active) | 0.168 µM (active) | 0.0893 µM (active) | 1.51 µM (inactive) | 0.165 µM (active) | 0.182 µM (active) | 1.58 µM (inactive) | 0.552 µM (active) | 0.0211 µM (active) | 0.0237 µM (active) | 0.155 µM | 1.61 µM (inactive) | 0.552 µM (active) | 0.195 µM (active) | 0.137 µM (active) | 0.29 µM (active)
6 | CC(C)(C)OC(=O)N/C=C1\C(=O)Oc2ccccc2C1=O | 26.1 µM (inactive) | 38 µM (inactive) | > 100 µM (inactive) | 13.9 µM (inactive) | 23.5 µM (inactive) | 17.1 µM (inactive) | 0.082 µM (active) | 51.1 µM (inactive) | 25.2 µM (inactive) | 70.8 µM (inactive) | 8.36 µM (inactive) | 46.8 µM (inactive) | 37.8 µM (inactive) | 34.5 µM (inactive) | 11.3 µM | 0.0294 µM (active) | 20.7 µM (inactive) | 36 µM (inactive) | 41.4 µM (inactive) | 32.3 µM (inactive)
7 | COc1ccc(/C=N\N2CC(=O)N3C4C=CC(CC4)N3C2=O)cc1 (stereo not given) | 54.7 µM (inactive) | > 100 µM (inactive) | 53.1 µM (inactive) | 46.3 µM (inactive) | 22.2 µM (inactive) | 46.7 µM (inactive) | > 100 µM (inactive) | > 100 µM (inactive) | 88.7 µM (inactive) | > 100 µM (inactive) | > 100 µM (inactive) | > 100 µM (inactive) | > 100 µM (inactive) | > 100 µM (inactive) | > 100 µM | > 100 µM (inactive) | > 100 µM (inactive) | > 100 µM (inactive) | 81.8 µM (inactive) | > 100 µM (inactive)
8 | O=C(O/N=c1/ccc(=O)/c(=N\OC(=O)c2ccccc2)c1=O)c1ccccc1 | > 100 µM (inactive) | 76.2 µM (inactive) | 0.857 µM (active) | > 100 µM (inactive) | > 100 µM (inactive) | > 100 µM (inactive) | > 100 µM (inactive) | > 100 µM (inactive) | > 100 µM (inactive) | 1.81 µM (inactive) | > 100 µM (inactive) | > 100 µM (inactive) | > 100 µM (inactive) | > 100 µM (inactive) | > 100 µM | > 100 µM (inactive) | > 100 µM (inactive) | > 100 µM (inactive) | > 100 µM (inactive) | 76.4 µM (inactive)
9 | C#CCC(O)c1ccc(OC)c(OCc2ccccc2)c1 (stereo not given) | 46.9 µM (inactive) | > 100 µM (inactive) | > 100 µM (inactive) | > 100 µM (inactive) | 27 µM (inactive) | > 100 µM (inactive) | > 100 µM (inactive) | > 100 µM (inactive) | > 100 µM (inactive) | > 100 µM (inactive) | > 100 µM (inactive) | > 100 µM (inactive) | > 100 µM (inactive) | > 100 µM (inactive) | > 100 µM | > 100 µM (inactive) | 32.8 µM (inactive) | > 100 µM (inactive) | 82.2 µM (inactive) | > 100 µM (inactive)
10 | C(=N\c1nc2cc3sc(/N=C/c4cccs4)nc3cc2s1)/c1cccs1 | 33 µM (inactive) | > 100 µM (inactive) | 79.6 µM (inactive) | > 100 µM (inactive) | > 100 µM (inactive) | > 100 µM (inactive) | > 100 µM (inactive) | 3.4 µM (inactive) | > 100 µM (inactive) | 33.4 µM (inactive) | > 100 µM (inactive) | > 100 µM (inactive) | 66.5 µM (inactive) | > 100 µM (inactive) | 73.5 µM | > 100 µM (inactive) | 28.4 µM (inactive) | > 100 µM (inactive) | > 100 µM (inactive) | > 100 µM (inactive)
11 | COC(=O)C1CC2CCC1(O[Si](C(C)C)(C(C)C)C(C)C)C(O)C2 (stereo not given) | 23.1 µM (inactive) | 19.1 µM (inactive) | 13.1 µM (inactive) | 18.1 µM (inactive) | 21.9 µM (inactive) | 18.4 µM (inactive) | 16.6 µM (inactive) | 29.4 µM (inactive) | 26.2 µM (inactive) | 14.9 µM (inactive) | 96.6 µM (inactive) | 14.2 µM (inactive) | 14.4 µM (inactive) | 22 µM (inactive) | 16.9 µM | 43.4 µM (inactive) | 21.2 µM (inactive) | 18.2 µM (inactive) | 31.8 µM (inactive) | 20.7 µM (inactive)
12 | Cn1c2ccccc2c(=O)c2cccc(C(=O)NC(CS)C(=O)O)c21 (stereo not given) | > 100 µM (inactive) | > 100 µM (inactive) | < 0.01 µM (active) | > 100 µM (inactive) | 72.4 µM (inactive) | > 100 µM (inactive) | > 100 µM (inactive) | 67.5 µM (inactive) | 93.5 µM (inactive) | 40.9 µM (inactive) | > 100 µM (inactive) | > 100 µM (inactive) | 53.6 µM (inactive) | > 100 µM (inactive) | > 100 µM | > 100 µM (inactive) | 40.1 µM (inactive) | 68.9 µM (inactive) | 23.6 µM (inactive) | > 100 µM (inactive)
13 | C=C1C(=O)O[C@@H]2/C=C(\C)CC/C=C(/COC(C)=O)C[C@@H](OC(C)=O)[C@@H]12 | 11.6 µM (inactive) | 29.2 µM (inactive) | 2.03 µM (inactive) | 10.4 µM (inactive) | 50.1 µM (inactive) | 22.9 µM (inactive) | 8.87 µM (inactive) | 3.44 µM (inactive) | 11.3 µM (inactive) | 3.71 µM (inactive) | 19 µM (inactive) | 17.4 µM (inactive) | 5.19 µM (inactive) | 6 µM (inactive) | 3.28 µM | 40.6 µM (inactive) | 19.8 µM (inactive) | 3.85 µM (inactive) | 17.9 µM (inactive) | 16.1 µM (inactive)
14 | Cc1ccc(S(=O)(=O)N2CCCC2C(=O)O[C@H]2CC[C@H]3CC=C[C@H]32)cc1 (stereo not given in full) | 19.1 µM (inactive) | 76.9 µM (inactive) | > 10 µM (inactive) | 41.4 µM (inactive) | > 74.6 µM (inactive) | 45.4 µM (inactive) | 29.9 µM (inactive) | > 10 µM (inactive) | > 100 µM (inactive) | 26.4 µM (inactive) | 23.8 µM (inactive) | > 100 µM (inactive) | 20.7 µM (inactive) | > 69.8 µM (inactive) | > 10 µM | 33.7 µM (inactive) | 24.7 µM (inactive) | 19.1 µM (inactive) | 24.5 µM (inactive) | 25 µM (inactive)
